Test results reported in patent US20260226064A1, “POLYCYCLIC COMPOUND FOR TREATING NEUROLOGICAL DISEASES AND TUMORS” (Shanghai Institute of Organic Chemistry, Chinese Academy of …, priority 2023, published 2026).

Tested on: acetylated microtubule in HEK293T cells
Assay: Microtubule-Stabilizing Activity Assay (acetylated microtubule immunoblot, HEK293T, colchicine challenge)
Format: cell-based
Conditions: 1 h pre-incubation, then colchicine 1 μM 3 h, relative to CNDR-51657 at 500 nM = 1.00; for Microtubule-Stabilizing Activity 50 nM: compound 50 nM; for Microtubule-Stabilizing Activity 500 nM: compound 500 nM
Experimental: Compound solvent: 100% dimethyl sulfoxide (DMSO). Cell line: HEK293T (ATCC, CRL3216). Culture conditions: Cells were cultured in Dulbecco's Modified Eagle's Medium (DMEM) containing 10% fetal bovine serum and 1% penicillin/streptomycin. Cells were cultured at 37° C. in a Thermo-Fisher incubator with a humidified atmosphere of 5% carbon dioxide.
One day prior to the experiment, 100,000 cells were seeded at a density of 200,000 cells/ml in a 24-well plate.
On the day of the experiment, 20 μl of PBS phosphate buffer containing the test compound at experimental concentrations or an equivalent volume of DMSO was added to each well. After incubating at 37° C. for 1 hour, colchicine was added to each well at a final concentration of 1 μM, followed by an additional 3-hour incubation at 37° C. The plate was then placed on ice. The medium in each well was removed, and the cells were washed with ice-cold PBS. After aspirating the PBS, 0.1 mL of ice-cold RIPA lysis buffer (containing 0.5% sodium deoxycholate, 0.1% SDS, 1% NP-40, 5 mM EDTA, pH 8.0) was quickly added. Prior to use, a commercial protease inhibitor cocktail (1:500) and 1 μM deacetylase inhibitor Trichostatin A (Sangon Biotech Co., Ltd.) were added to the cell lysis buffer. The cell lysate were transferred to a 1.5 ml centrifuge tube, sonicated, and centrifuged at 13,000 rpm for 10 minutes. The supernatant was collected, and protein concentration was determined using the BCA assay.
Based on existing literature (Black, 1989; Kurt, 2011), acetylated microtubule was used as an indicator of microtubule polymerization to assess the microtubule-stabilizing efficacy of the compounds. HEK293T cell lysates were analyzed by SDS-PAGE (7.5% gel) and immunoblotted using acetylated microtubule antibody (1:20,000, Sigma-Aldrich, T7451) and α-microtubule antibody (1:2,000, Proteintech, 11224-1-AP). After incubation with fluorescent dye-conjugated IgG (1:40,000, Licor), the blots were visualized using an Odyssey-Dlx imaging system. Grayscale analysis was performed using ImageJ.
The compound activity was quantified with the microtubule-stabilizing activity of CNDR-51657 (C5) (Jane, 2016) at 500 nM as 1.00.

“6-(4-(((1R,5S,6r)-3-Azabicyclo[3.1.0]hexan-6-yl)methoxy)-2,6-difluorophenyl)-5-methyl-N-(2,2,2-trifluoroethyl)-[1,2,4]triazolo[1,5-a]pyrimidin-7-amine [Example 35]” was tested, and the “Microtubule-Stabilizing Activity 50 nM” value was 0.87 and the “Microtubule-Stabilizing Activity 500 nM” value was 1.80.
For `CC(C)[C@@H](C)Nc1c(-c2c(F)cc(OC3CC4(CNC4)C3)cc2F)c(Cl)nc2ncnn12` [Example 1, (R)-6-(4-((2-azaspiro[3.3]hept-6-yl)oxy)-2,6-difluorophenyl)-5-chloro-N-(3-methylbut-2-yl)-[1,2,4]triazolo[1,5-a]pyrimidin-7-amine], the “Microtubule-Stabilizing Activity 50 nM” value was 0.36 and the “Microtubule-Stabilizing Activity 500 nM” value was 0.71.
For `CC(C)[C@@H](C)Nc1c(-c2c(F)cc(OC3CC4(C3)CN(C)C4)cc2F)c(Cl)nc2ncnn12` [Example 2, (R)-6-(4-((2-methyl-2-azaspiro[3.3]hept-6-yl)oxy)-2,6-difluorophenyl)-5-chloro-N-(3-methylbut-2-yl)-[1,2,4]triazolo[1,5-a]pyrimidin-7-amine], the “Microtubule-Stabilizing Activity 50 nM” value was 0.29 and the “Microtubule-Stabilizing Activity 500 nM” value was 0.71.
With `C[C@H](Nc1c(-c2c(F)cc(OC3CC4(CNC4)C3)cc2F)c(Cl)nc2ncnn12)C(F)(F)F` [Example 3, (S)-6-(4-((2-Azaspiro[3.3]heptan-6-yl)oxy)-2,6-difluorophenyl)-5-chloro-N-(1,1,1-trifluoropropan-2-yl)-[1,2,4]triazolo[1,5-a]pyrimidin-7-amine] the “Microtubule-Stabilizing Activity 50 nM” value was 0.36 and the “Microtubule-Stabilizing Activity 500 nM” value was 0.49.
With `CC(C)[C@@H](C)Nc1c(-c2c(F)cc(OC3CC4(CCNCC4)C3)cc2F)c(Cl)nc2ncnn12` [Example 5, (R)-6-(4-((7-Azaspiro[3.5]nonan-2-yl)oxy)-2,6-difluorophenyl)-5-chloro-N-(3-methylbutan-2-yl)-[1,2,4]triazolo[1,5-a]pyrimidin-7-amine] the “Microtubule-Stabilizing Activity 50 nM” value was 0.41 and the “Microtubule-Stabilizing Activity 500 nM” value was 0.76.
In the case of `CC(C)[C@@H](C)Nc1c(-c2c(F)cc(OC3CC4(CCN(C)CC4)C3)cc2F)c(Cl)nc2ncnn12` [Example 6, (R)-6-(4-((7-Methyl-7-azaspiro[3.5]nonan-2-yl)oxy)-2,6-difluorophenyl)-5-chloro-N-(3-methylbutan-2-yl)-[1,2,4]triazolo[1,5-a]pyrimidin-7-amine], the “Microtubule-Stabilizing Activity 50 nM” value is reported as 0.25 and the “Microtubule-Stabilizing Activity 500 nM” value is reported as 0.38.
In the case of `C[C@H](Nc1c(-c2c(F)cc(OC3CC4(CCNCC4)C3)cc2F)c(Cl)nc2ncnn12)C(F)(F)F` [Example 7, (S)-6-(4-((7-Azaspiro[3.5]nonan-2-yl)oxy)-2,6-difluorophenyl)-5-chloro-N-(1,1,1-trifluoropropan-2-yl)-[1,2,4]triazolo[1,5-a]pyrimidin-7-amine], the “Microtubule-Stabilizing Activity 50 nM” value is reported as 0.42 and the “Microtubule-Stabilizing Activity 500 nM” value is reported as 0.81.
`C[C@H](Nc1c(-c2c(F)cc(OC3CC4(CCN(C)CC4)C3)cc2F)c(Cl)nc2ncnn12)C(F)(F)F` [Example 8, (S)-6-(4-((7-Methyl-7-azaspiro[3.5]nonan-2-yl)oxy)-2,6-difluorophenyl)-5-chloro-N-(1,1,1-trifluoropropan-2-yl)-[1,2,4]triazolo[1,5-a]pyrimidin-7-amine] was tested, and the “Microtubule-Stabilizing Activity 50 nM” value was 0.43 and the “Microtubule-Stabilizing Activity 500 nM” value was 0.31.
With `CNC1CC2(C1)CC(Oc1cc(F)c(-c3c(Cl)nc4ncnn4c3N[C@H](C)C(C)C)c(F)c1)C2` (stereo partly drawn) [Example 9, (R)-5-Chloro-6-(2,6-difluoro-4-((6-(methylamino)spiro[3.3]heptan-2-yl)oxy)phenyl)-N-(3-methylbutan-2-yl)-[1,2,4]triazolo[1,5-a]pyrimidin-7-amine] the “Microtubule-Stabilizing Activity 50 nM” value was 0.53 and the “Microtubule-Stabilizing Activity 500 nM” value was 1.74.
In the case of `CC(C)[C@@H](C)Nc1c(-c2c(F)cc(OC3CC4(C3)CC(N(C)C)C4)cc2F)c(Cl)nc2ncnn12` (stereo partly drawn) [Example 10, (R)-5-Chloro-6-(4-((6-(dimethylamino)spiro[3.3]heptan-2-yl)oxy)-2,6-difluorophenyl)-N-(3-methylbutan-2-yl)-[1,2,4]triazolo[1,5-a]pyrimidin-7-amine], the “Microtubule-Stabilizing Activity 50 nM” value is reported as 0.26 and the “Microtubule-Stabilizing Activity 500 nM” value is reported as 0.28.
With `C[C@H](Nc1c(-c2c(F)cc(OC3CC4(C3)CC(N(C)C)C4)cc2F)c(Cl)nc2ncnn12)C(F)(F)F` (stereo partly drawn) [Example 12, (S)-5-chloro-6-(4-((6-(dimethylamino)spiro[3.3]heptan-2-yl)oxy)-2,6-difluorophenyl)-N-(1,1,1-trifluoropropan-2-yl)-[1,2,4]triazolo[1,5-a]pyrimidin-7-amine] the “Microtubule-Stabilizing Activity 50 nM” value was 0.30 and the “Microtubule-Stabilizing Activity 500 nM” value was 0.78.
In the case of `CNC1CC2(C1)CC(Oc1cc(F)c(-c3c(Cl)nc4ncnn4c3N[C@H](C)C3CCC3)c(F)c1)C2` (stereo partly drawn) [Example 13, (R)-5-chloro-N-(1-cyclobutylethyl)-6-(2,6-difluoro-4-((6-(methylamino)spiro[3.3]heptan-2-yl)oxy)phenyl)-[1,2,4]triazolo[1,5-a]pyrimidin-7-amine], the “Microtubule-Stabilizing Activity 50 nM” value is reported as 0.35 and the “Microtubule-Stabilizing Activity 500 nM” value is reported as 1.39.
In the case of `C[C@@H](Nc1c(-c2c(F)cc(OC3CC4(C3)CC(N(C)C)C4)cc2F)c(Cl)nc2ncnn12)C1CCC1` (stereo partly drawn) [Example 14, (R)-5-Chloro-N-(1-cyclobutylethyl)-6-(4-((6-(dimethylamino)spiro[3.3]heptan-2-yl)oxy)-2,6-difluorophenyl)-[1,2,4]triazolo[1,5-a]pyrimidin-7-amine], the “Microtubule-Stabilizing Activity 50 nM” value is reported as 0.23 and the “Microtubule-Stabilizing Activity 500 nM” value is reported as 1.98.
With `CNC1CC2(C1)CC(Oc1cc(F)c(-c3c(Cl)nc4ncnn4c3NCC(F)(F)F)c(F)c1)C2` (stereo not shown) [Example 15, 5-Chloro-6-(2,6-difluoro-4-((6-(methylamino)spiro[3.3]heptan-2-yl)oxy)phenyl)-N-(2,2,2-trifluoroethyl)-[1,2,4]triazolo[1,5-a]pyrimidin-7-amine] the “Microtubule-Stabilizing Activity 50 nM” value was 0.15 and the “Microtubule-Stabilizing Activity 500 nM” value was 1.60.
`CN(C)C1CC2(CC(Oc3cc(F)c(-c4c(Cl)nc5ncnn5c4NCC(F)(F)F)c(F)c3)C2)C1` (stereo not shown) [Example 16] was tested, and the “Microtubule-Stabilizing Activity 50 nM” value was 0.07 and the “Microtubule-Stabilizing Activity 500 nM” value was 1.66.
In the case of `CNC1CCC2(CC1)CC(Oc1cc(F)c(-c3c(Cl)nc4ncnn4c3N[C@H](C)C(C)C)c(F)c1)C2` (stereo partly drawn) [Example 17, (R)-5-Chloro-6-(2,6-difluoro-4-((7-(methylamino)spiro[3.5]nonan-2-yl)oxy)phenyl)-N-(3-methylbutan-2-yl)-[1,2,4]triazolo[1,5-a]pyrimidin-7-amine], the “Microtubule-Stabilizing Activity 50 nM” value is reported as 0.21 and the “Microtubule-Stabilizing Activity 500 nM” value is reported as 0.89.
With `CC(C)[C@@H](C)Nc1c(-c2c(F)cc(OC3CC4(CCC(N(C)C)CC4)C3)cc2F)c(Cl)nc2ncnn12` (stereo partly drawn) [Example 18, (R)-5-Chloro-6-(2,6-difluoro-4-((7-(dimethylamino)spiro[3.5]nonan-2-yl)oxy)phenyl)-N-(3-methylbutan-2-yl)-[1,2,4]triazolo[1,5-a]pyrimidin-7-amine] the “Microtubule-Stabilizing Activity 50 nM” value was 0.07 and the “Microtubule-Stabilizing Activity 500 nM” value was 0.68.
With `CNC1CCC2(CC1)CC(Oc1cc(F)c(-c3c(Cl)nc4ncnn4c3N[C@@H](C)C(F)(F)F)c(F)c1)C2` (stereo partly drawn) [Example 19, (S)-5-Chloro-6-(2,6-difluoro-4-((7-(methylamino)spiro[3.5]nonan-2-yl)oxy)phenyl)-N-(1,1,1-trifluoropropan-2-yl)-[1,2,4]triazolo[1,5-a]pyrimidin-7-amine] the “Microtubule-Stabilizing Activity 50 nM” value was 0.16 and the “Microtubule-Stabilizing Activity 500 nM” value was 0.62.
For `C[C@H](Nc1c(-c2c(F)cc(OC3CC4(CCC(N(C)C)CC4)C3)cc2F)c(Cl)nc2ncnn12)C(F)(F)F` (stereo partly drawn) [Example 20, (S)-5-Chloro-6-(2,6-difluoro-4-((7-(dimethylamino)spiro[3.5]nonan-2-yl)oxy)phenyl)-N-(1,1,1-trifluoropropan-2-yl)-[1,2,4]triazolo[1,5-a]pyrimidin-7-amine], the “Microtubule-Stabilizing Activity 50 nM” value was 0.05 and the “Microtubule-Stabilizing Activity 500 nM” value was 1.32.
`CC(C)[C@@H](C)Nc1c(-c2c(F)cc(OCC3[C@H]4CNC[C@@H]34)cc2F)c(Cl)nc2ncnn12` (stereo partly drawn) [Example 21, 6-(4-(((1R,5S,6r)-3-Azabicyclo[3.1.0]hexan-6-yl)methoxy)-2,6-difluorophenyl)-5-chloro-N—((R)-3-methylbutan-2-yl)-[1,2,4]triazolo[1,5-a]pyrimidin-7-amine] was tested, and the “Microtubule-Stabilizing Activity 50 nM” value was 1.27 and the “Microtubule-Stabilizing Activity 500 nM” value was 1.60.
